In patent US20250243189A1, “HERBICIDAL IMIDAZOLE-CONTAINING COMPOUNDS” (SYNGENTA CROP PROTECTION AG, priority 2022, published 2025):

Columns and labels:
Format in all cases: in vivo
Conditions in all cases: 250 g/ha, evaluated after 13 days, five-point scale
[1] = tested on: Amaranthus retoflexus (AMARE); test: Post-emergence herbicidal glasshouse test
Procedure: (§1) Seeds of a variety of test species are sown in standard soil in pots Amaranthus retoflexus (AMARE), Echinochloa crus-galli (ECHCG), Setaria faberi (SETFA)). After cultivation for one day (pre-emergence) or after 8 days cultivation (post-emergence) under controlled conditions in a glasshouse (at 24/16° C., day/night; 14 hours light; 65% humidity), the plants are sprayed with an aqueous spray solution derived from the formulation of the technical active ingredient in acetone/water (50:50) solution containing 0.5% Tween 20 (polyoxyethelyene sorbitan monolaurate, CAS RN 9005-64-5). Compounds are applied at 250 g/ha unless otherwise stated. The test plants are then grown in a glasshouse under controlled conditions in a glasshouse (at 24/16° C., day/night; 14 hours light; 65% humidity) and watered twice daily. After 13 days for pre and post-emergence, the test is evaluated for the percentage damage caused to the plant. The biological activities are shown in the following table on a five-point scale (5=81-100%; 4=61-80%; 3=41-60%; 2=21-40%; 1=0-20%).

[2] = tested on: IPOHE; test: Post-emergence herbicidal glasshouse test
Procedure: as §1

[3] = tested on: AMAPA; test: Post-emergence herbicidal glasshouse test
Procedure: [Worded in the source for another organism; this organism is reported under the same test.] as §1

[4] = tested on: Echinochloa crus-galli (ECHCG); test: Post-emergence herbicidal glasshouse test
Procedure: as §1

[5] = tested on: Amaranthus retoflexus (AMARE); test: Pre-emergence herbicidal glasshouse test
Procedure: as §1

[6] = tested on: IPOHE; test: Pre-emergence herbicidal glasshouse test
Procedure: as §1

[7] = tested on: AMAPA; test: Pre-emergence herbicidal glasshouse test
Procedure: [Worded in the source for another organism; this organism is reported under the same test.] as §1

[8] = tested on: Echinochloa crus-galli (ECHCG); test: Pre-emergence herbicidal glasshouse test
Procedure: as §1

| Structure (SMILES) | percentage damage caused to the plant, AMARE [1] | percentage damage caused to the plant, IPOHE [2] | percentage damage caused to the plant, AMAPA [3] | percentage damage caused to the plant, ECHCG [4] | percentage damage caused to the plant, AMARE [5] | percentage damage caused to the plant, IPOHE [6] | percentage damage caused to the plant, AMAPA [7] | percentage damage caused to the plant, ECHCG [8] |
| --- | --- | --- | --- | --- | --- | --- | --- | --- |
| Cc1cnc(Cn2cc(C(F)(F)F)nc2-c2ccc(Cl)s2)nc1 [Compound 1.072] | 5 (5=81-100%) | 4 (4=61-80%) | 5 (5=81-100%) | 5 (5=81-100%) | 5 (5=81-100%) | 5 (5=81-100%) | 5 (5=81-100%) | 5 (5=81-100%) |
| FC(F)(F)c1cn(Cc2ncc(Cl)cn2)c(-c2cnn(C3CC3)c2)n1 [Compound 1.015] | 5 (5=81-100%) | 5 (5=81-100%) | 4 (4=61-80%) | 4 (4=61-80%) | 5 (5=81-100%) | 5 (5=81-100%) | 5 (5=81-100%) | 5 (5=81-100%) |
| FC(F)(F)c1cn(Cc2ncc(Cl)cn2)c(-c2sccc2Br)n1 [Compound 1.044] | 2 (2=21-40%) | 3 (3=41-60%) | 2 (2=21-40%) | 1 (1=0-20%) | 5 (5=81-100%) | 1 (1=0-20%) | 5 (5=81-100%) | 1 (1=0-20%) |
| Cn1cc(Cl)c(-c2nc(C(F)(F)F)cn2Cc2ncc(Cl)cn2)n1 [Compound 1.043] | 1 (1=0-20%) | 1 (1=0-20%) | 1 (1=0-20%) | 1 (1=0-20%) | 1 (1=0-20%) | 1 (1=0-20%) | 1 (1=0-20%) | 1 (1=0-20%) |
| FC(F)(F)c1cn(Cc2ncc(Cl)cn2)c(-c2cscn2)n1 [Compound 1.023] | 1 (1=0-20%) | 2 (2=21-40%) | 1 (1=0-20%) | 1 (1=0-20%) |  | 1 (1=0-20%) | 1 (1=0-20%) | 1 (1=0-20%) |
| FC(F)Oc1cccc(Cn2cc(C(F)(F)F)nc2-c2ccc(Cl)s2)n1 [Compound 1.048] | 1 (1=0-20%) | 1 (1=0-20%) | 1 (1=0-20%) | 1 (1=0-20%) | 1 (1=0-20%) |  | 1 (1=0-20%) | 1 (1=0-20%) |
| Cc1nc(-c2nc(C(F)(F)F)cn2Cc2ncc(Cl)cn2)co1 [Compound 1.018] | 2 (2=21-40%) | 2 (2=21-40%) | 1 (1=0-20%) | 1 (1=0-20%) | 2 (2=21-40%) | 1 (1=0-20%) |  | 1 (1=0-20%) |
| FC(F)(F)c1cn(Cc2ncc(Cl)cn2)c(-c2nccs2)n1 [Compound 1.022] | 1 (1=0-20%) | 1 (1=0-20%) | 1 (1=0-20%) | 1 (1=0-20%) |  | 1 (1=0-20%) | 1 (1=0-20%) | 1 (1=0-20%) |
